What was measured:
[1] = test system: Glucagon-like peptide-1 (GLP-1); test: Total GLP-1 secretion at end of oral glucose tolerance test; format: in vivo; settings: C57/6N mice, 100 mg/kg oral; total GLP-1 at end of OGTT vs. control animals
Method: The effect of test compounds on the secretion of Glucagon-like peptide-1 (GLP-1) in C57/6N mice was determined at the end of the oral glucose tolerance test. Animals were anesthetized with pentobarbital and blood collected by heart puncture in potassium EDTA-coated microtainer tubes containing 10 μl/ml DPP-IV inhibitor and 500 KIU/ml Aprotinin. Total GLP-1 was measured using Mouse/Rat Total Glucagon-like peptide-1 assay kit (Meso Scale Discovery) and MSD SECTOR2400 Imager according to the manufacturer's instructions.
(§1) Oral glucose tolerance is expressed as a percent reduction in glucose excursion of animals receiving test compound vs. control animals. Incretin activity (i.e. incretin secretion) is expressed as an x-fold increase in GLP-1 production in animals receiving test compound vs. control animals.

[2] = Oral glucose tolerance test in C57BL/6N mice; format: in vivo; settings: 100 mg/kg oral, 3 g/kg glucose, percent reduction in glucose excursion (AUC 0-120 min) vs. control animals
Method: Male mice (8-10 week old C57BL/6N, Harlan Laboratories, Inc.) were maintained on 18% Protein Rodent diet (Teklad Global Diets, Harlan Laboratories, Inc). Overnight fasted mice were randomized into groups (n=8-10) to receive the test compounds at a dose of 100 mg/kg or the vehicle (1% CMC, 2% TWEEN 80). Compounds were delivered orally via gavage. Blood glucose levels were measured by glucometer before administration of compounds and at 30 minutes post compound. The mice were then dosed orally with 3 g/kg glucose. Blood glucose measurements were taken 20, 40, 60, 90 and 120 minutes after glucose administration. Glucose levels were plotted against time and the incremental area under the curve (AUC) of the glucose excursion was determined from T=0 to T=120 min.
as §1

[3] = biological target: T1, human GPR131 (Homo sapiens, UniProt Q8TDU6); test: Stimulation of cAMP in stable cell line expressing human GPR131 (FRET cAMP kit); format: cell-based; settings: 0.5 h; 1.1 μM compound, relative to maximal stimulatory activity of lithocholic acid at 3.3 μM; 30 minutes at 37° C.; read-out: Percent Activity @ 1.1 μM (of 3.3 uM LCA) (%)
T1 construct: expressed in transfected cells
T1 sequence (Q8TDU6 1-330): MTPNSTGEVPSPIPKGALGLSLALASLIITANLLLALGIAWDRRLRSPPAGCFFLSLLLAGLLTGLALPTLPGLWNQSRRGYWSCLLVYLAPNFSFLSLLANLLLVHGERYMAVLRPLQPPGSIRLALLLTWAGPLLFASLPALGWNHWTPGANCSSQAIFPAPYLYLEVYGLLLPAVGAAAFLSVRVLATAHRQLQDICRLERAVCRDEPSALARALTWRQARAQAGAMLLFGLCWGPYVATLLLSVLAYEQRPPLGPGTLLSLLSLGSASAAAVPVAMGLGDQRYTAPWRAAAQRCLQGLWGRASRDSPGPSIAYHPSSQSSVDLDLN
How it was run: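 Stable human GPR131 cells in DMEM/F12 with 1 mM IBMX treated with compound for 30 min at 37° C. Intracellular cAMP measured by competitive FRET immunoassay (665/620 nm ratio). Values given as % activity at 1.1 μM compound relative to maximal lithocholic acid stimulation at 3.3 μM.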

[4] = test system: Glucagon-like peptide-2 (GLP-2); test: Total GLP-2 secretion at end of OGTT in DIO mice; format: in vivo; settings: C57BL/6J DIO mice, 100 mg/kg oral; total GLP-2, 2 hours post glucose dosing
Method: (§2) 18 week old C57BL/6J diet induced obese (DIO) male mice were maintained on a 60 kcal % fat diet. Mice fasted for 9 hours were randomized into groups (n=9-10) to receive vehicle (1% CMC, 2% TWEEN 80) or test compound at a dose of 100 mg/kg. Compounds were delivered orally via gavage, and 30 minutes later mice were dosed orally with 2 g/kg glucose.
(§3) The effect of GPR131 agonists on the secretion of total Glucagon-like peptide-2 (GLP-2) and total Peptide YY (PYY) was determined at the end of the oral glucose tolerance test (2 hours post glucose dosing). Animals were anesthetized with pentobarbital and blood collected by heart puncture in potassium EDTA-coated microtainer tubes containing 10 μl/ml DPP-IV inhibitor and 500 KIU/ml Aprotinin. Total GLP-2 was measured using Total Glucagon-like peptide-2 assay kit and Total PYY was measured using Total Peptide YY assay kit.

[5] = test system: Peptide YY (PYY); test: Total PYY secretion at end of OGTT in DIO mice; format: in vivo; settings: C57BL/6J DIO mice, 100 mg/kg oral, 2 hours post glucose dosing
Method: as §2, §3

SMILES | Increase in GLP-1 (Fold) [1] [Fold] | Glucose Reduction (%) [2] [%] | activation at 1.1 µM [3] [%] | Increase in GLP-2 (Fold) [4] [Fold] | Increase in PYY (Fold) [5] [Fold]
Cc1cnccc1CN(C)C(=O)c1cnc(SCc2c(F)ccc(F)c2F)n1-c1ccc(F)cc1 [Compound 502, 1-(4-Fluorophenyl)-N-methyl-N-((3-methylpyridin-4-yl)methyl)-2-((2,3,6-trifluorobenzyl)thio)-1H-imidazole-5-carboxamide] | 2.2 | 27.7 | 100 | – | –
Cc1nn(C)cc1CN(C)C(=O)c1cnc(SCc2c(F)ccc(F)c2F)n1-c1ccc(F)cc1 [Compound 505, N-((1,3-Dimethyl-1H-pyrazol-4-yl)methyl)-1-(4-fluorophenyl)-N-methyl-2-((2,3,6-trifluorobenzyl)thio)-1H-imidazole-5-carboxamide] | 1.9 | 27.4 | 99 | – | –
Cc1cc(CN(C)C(=O)c2cnc(SCc3c(F)ccc(F)c3F)n2-c2ccc(F)cc2)ccn1 [Compound 577, 1-(4-Fluorophenyl)-N-methyl-N-((2-methylpyridin-4-yl)methyl)-2-((2,3,6-trifluorobenzyl)thio)-1H-imidazole-5-carboxamide] | 4.1 | 24.4 | 100 | 2.5 | 2.2
